# Results from patent publication US20210395327A1, “Growth Hormone-Releasing Hormone Antagonists and Uses Thereof” (United States Government As Represented By The Department …, priority 2019, published 2021).
# “Also recorded” adds a separate entry of the source. Non-standard residues stand in square brackets, D forms with d. Residues, ends and D or L forms follow the SMILES beside them. *: point of attachment. Phenylacetyl(2,3,4,5,6-F5) = O=C(Cc1c(F)c(F)c(F)c(F)c1F)*; Phe(F5) = N[C@@H](Cc1c(F)c(F)c(F)c(F)c1F)C(=O)O; Phe(4-Cl) = N[C@@H](Cc1ccc(Cl)cc1)C(=O)O; hArg = N=C(N)NCCCC[C@H](N)C(=O)O; 12Ado = NCCCCCCCCCCCC(=O)O; Nle = CCCC[C@H](N)C(=O)O; Orn = NCCC[C@H](N)C(=O)O; Abu = CC[C@H](N)C(=O)O
# Key:
# [1] = target: T1, membrane GHRH-receptors on human anterior pituitary cells (Homo sapiens, UniProt Q02643); assay: Receptor binding, displacement of 125I-[His1,Nle27]-hGH-RH(1-32)NH2 on human pituitary membranes; conditions: for IC50: membrane receptors on human anterior pituitary cells, mean of two to three determinations, read-out: IC50; for binding affinity to membrane receptors of human pituitary cells (in words): competitive binding, human pituitary membrane fractions
# T1 construct: Human pituitary was purchased from the National Hormone and Peptide Program; tissue National Hormone and Peptide Program; host or cells: human pituitary (membrane fractions)
# T1 sequence (Q02643 23-423): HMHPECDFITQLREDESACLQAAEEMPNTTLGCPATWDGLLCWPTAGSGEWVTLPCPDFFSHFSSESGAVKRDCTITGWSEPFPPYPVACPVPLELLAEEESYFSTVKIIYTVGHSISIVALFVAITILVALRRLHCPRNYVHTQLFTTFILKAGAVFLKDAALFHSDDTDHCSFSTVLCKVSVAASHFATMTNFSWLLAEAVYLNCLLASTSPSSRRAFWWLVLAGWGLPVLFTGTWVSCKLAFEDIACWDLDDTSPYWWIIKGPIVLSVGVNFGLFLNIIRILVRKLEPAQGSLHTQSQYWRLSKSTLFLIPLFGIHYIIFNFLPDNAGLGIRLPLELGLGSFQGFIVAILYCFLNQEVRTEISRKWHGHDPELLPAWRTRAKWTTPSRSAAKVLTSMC
# How it was run: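 Membrane fractions from human pituitary; peptides displace 125I-[His1,Nle27]-hGH-RH(1-32)NH2. IC50 is the dose giving 50% inhibition of specific binding, from duplicate tubes. Relative affinity is the ratio of test IC50 to hGH-RH(1-29)NH2 IC50.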
# [2] = tested on: ovarian cancer SK-OV-3 xenograft; assay: Xenograft tumor growth in nude mice, SK-OV-3; format: in vivo; conditions: Table 4L, Ovarian Ca SK-OV-3, 7 weeks; for % Inhibition: vs control
# Procedure: (§1) The peptides' activity was compared with GHRH antagonist MIA-602. All statistical analyzses were performed from comparing GHRA antagonists to non-treated tumor (control).
# (§2) Peptides and chemicals. GHRH antagonists MIA-602 and AVR-GHRH antagonists (see Table 2 above) were synthesized by solid phase methods and purified by HPLC. The peptides were dissolved in DMSO and further diluted in 10% 1,2-propanediol. The final concentration of peptides was 50 µg/ml in 10% 1,2-propanediol containing 0.1% of DMSO.
# (§3) Cell culture. Human cancer cell lines including pancreatic (PANC-1 and CFPAC-1), lung (HCC827 and H460), stomach (NCI-N87), prostate (PC3), brest (MX-1 and HCC-1806), colorectal (HT-29), and ovarian (SK-OV-3 and OVCAR-3) were obtained from the American Type Culture Collection (ATCC) and cultured at 37° C. in a humidified 95% air/5% CO2 atmosphere in the medium recommended by ATCC.
# (§4) Xenograft models of human cancers in nude mice. Female athymic (NCr nu/nu) nude mice, 5- to 6-weeks-old, obtained from the Envigo labs (Tampa, Fla.), were housed in laminar airflow cabinets under pathogen-free conditions with a 12-h light/12-h dark schedule, and were fed autoclaved standard chow and water. To generate mice with xenografted tumors, tumor xenografts were initiated by subcutaneous (s.c.) injection of 107 human cancer cells into female nude mice. After about 4 weeks the resulting tumors were dissected and collected after removing necrosis tissues. The tumors were then cut into particles with size of 3 mm3 and transplanted s.c. by trocar needle into experimental animals. When tumors grew to the size of 50-60 mm3 (by volume), mice were randomized into groups and treated daily for 4-8 weeks by subcutaneous administration of 5 μg of GHRH antagonists MIA-602 or AVR-compounds (2-10 μg as indicated), or vehicle solutions (0.1% DMSO in 10% 1,2-propanediol) respectively. Tumor sizes were measured weekly.
# (§5) Statistical analysis. One-way ANOVA followed by Bonferroni comparison were performed. Data are expressed as Mean±SEM. To determine statistical significance between animal groups, two-tailed Student's t-test was conducted. Differences were considered significant when p<0.05.
# (§6) Results. […] FIG. 1A-N represents in vivo inhibition of tumor growth during the treatment with GHRH antagonist MIA-602 and selected AVR antagonists in nude mice xenografted with various human tumors including pancreatic cancer PANC-1 (FIG. 1A) and CFPAC-1 (FIG. 1I); lung cancer HCC827 (FIGS. 1B, C) and H460 (FIG. 1H); stomach cancer N87 (FIGS. 1D-F); colon cancer HT-29 (FIG. 1G); breast cancer MX-1 and HCC-1806 (FIGS. 1J, K); ovarian cancer SK-OV-3 and OVACAR-3 (FIGS. 1 L, M) and prostate cancer PC3 (FIG. 1N). See also Table 5.
# [3] = tested on: pancreatic cancer CFPAC-1 xenograft; assay: Xenograft tumor growth in nude mice, CFPAC-1; format: in vivo; conditions: Table 4I, Pancreatic Ca CFPAC-1, 7 weeks; for % Inhibition: vs control
# Procedure: as §1, §2, §3, §4, §5, §6
# [4] = tested on: prostate cancer PC3 xenograft; assay: Xenograft tumor growth in nude mice, PC3; format: in vivo; conditions: Table 4N, Prostate Ca PC3, 8 weeks, 5 μg/day s.c.
# Procedure: as §1, §2, §3, §4, §5, §6
compound,measurement,setting,value
"CCCC[C@H](NC(=O)[C@@H](NC(=O)[C@H](CC(=O)O)NC(=O)[C@H](CCC(N)=O)NC(=O)[C@H](CC(C)C)NC(=O)[C@H](CC(C)C)NC(=O)[C@H](CCCN)NC(=O)[C@H](Cc1c[nH]cn1)NC(=O)[C@H](C)NC(=O)[C@H](CO)NC(=O)[C@H](CC(C)C)NC(=O)[C@H](CCC(N)=O)NC(=O)[C@H](CC)NC(=O)[C@H](CC(C)C)NC(=O)[C@@H](NC(=O)[C@H](CCCN)NC(=O)[C@H](Cc1c[nH]cn1)NC(=O)[C@H](Cc1c(F)c(F)c(F)c(F)c1F)NC(=O)[C@H](CCCCNC(=N)N)NC(=O)[C@H](C)NC(=O)[C@@H](NC(=O)[C@H](Cc1ccc(Cl)cc1)NC(=O)[C@@H](NC(=O)[C@H](C)NC(=O)[C@H](CC(=O)O)NC(=O)[C@@H](CCCNC(=N)N)NC(=O)[C@H](Cc1ccc(O)cc1)NC(=O)CCCCCCCCCCCNC(=O)Cc1c(F)c(F)c(F)c(F)c1F)[C@@H](C)CC)[C@@H](C)O)C(C)C)[C@@H](C)CC)C(=O)N[C@H](CCCNC(=N)N)C(=O)N[C@@H](CCCCNC(=N)N)C(=O)NCCCCCCCCCCCC(=O)NC [AVR-543, 5FPhAC-Ada-Tyr-DArg-Asp-Ala-Ile-Cpa-Thr-Ala-Har-5FPhe-His-Orn-Val-Leu-Abu-Gln-Leu-Ser-Ala-His-Orn-Leu-Leu-Gln-Asp-Ile-Nle-DArg-Har-Ada-NHCH3] ({Phenylacetyl(2,3,4,5,6-F5)-12Ado}-Y[dR]DAI[Phe(4-Cl)]TA[hArg][Phe(F5)]H[Orn]VL[Abu]QLSAH[Orn]LLQDI[Nle][dR][hArg][12Ado]-NHMe)",IC50,[1],0.25 nM
"CCCC[C@H](NC(=O)[C@@H](NC(=O)[C@H](CC(=O)O)NC(=O)[C@H](CCC(N)=O)NC(=O)[C@H](CC(C)C)NC(=O)[C@H](CC(C)C)NC(=O)[C@H](CCCCN)NC(=O)[C@H](CCCNC(=N)N)NC(=O)[C@H](C)NC(=O)[C@H](CO)NC(=O)[C@H](CC(C)C)NC(=O)[C@H](CCC(N)=O)NC(=O)[C@H](CC)NC(=O)[C@H](CC(C)C)NC(=O)[C@@H](NC(=O)[C@H](CCCCN)NC(=O)[C@H](CCCNC(=N)N)NC(=O)[C@H](Cc1ccc(OC)cc1)NC(=O)[C@H](CCCCNC(=N)N)NC(=O)[C@H](C)NC(=O)[C@@H](NC(=O)[C@H](Cc1c(F)c(F)c(F)c(F)c1F)NC(=O)[C@@H](NC(=O)[C@H](C)NC(=O)[C@H](CC(=O)O)NC(=O)[C@@H](CCCNC(=N)N)NC(=O)[C@H](Cc1ccc(O)cc1)NC(=O)CCCCCCCCCCCNC(=O)Cc1c(F)c(F)c(F)c(F)c1F)[C@@H](C)CC)[C@@H](C)O)C(C)C)[C@@H](C)CC)C(=O)N[C@H](CCCNC(=N)N)C(=O)N[C@@H](CCCCNC(=N)N)C(=O)NCCCCCCCCCCCC(N)=O [AVR-352, 5FPhAC-Ada-Tyr-DArg-Asp-Ala-Ile-5FPhe-Thr-Ala-Har-Tyr(Me)-Arg-Lys-Val-Leu-Abu-Gln-Leu-Ser-Ala-Arg-Lys-Leu-Leu-Gln-Asp-Ile-Nle-DArg-Har-Ada-NH2] ({Phenylacetyl(2,3,4,5,6-F5)-12Ado}-Y[dR]DAI[Phe(F5)]TA[hArg]Y(Me)RKVL[Abu]QLSARKLLQDI[Nle][dR][hArg][12Ado]-NH2)",binding affinity to membrane receptors of human pituitary cells (in words),[1],higher binding affinity in comparison to MIA-602; also recorded: highest binding affinities
same,IC50,[1],0.09 nM
same,Tumor Size (mm3),[2]; 2.5 μg/day s.c.,718.4 mm3
same,% Inhibition,[2]; 2.5 μg/day s.c.,45.0%
same,Tumor Size (mm3),[2]; 5 μg/day s.c.,422.3 mm3
same,% Inhibition,[2]; 5 μg/day s.c.,67.7%
same,Tumor Growth %,[3]; 2.5 μg/day s.c.,1616.9%
same,% Inhibition,[3]; 2.5 μg/day s.c.,18.0%
same,Tumor Growth %,[3]; 5 μg/day s.c.,1448.4%
same,% Inhibition,[3]; 5 μg/day s.c.,26.5%
same,Tumor Size (mm3),[4],413.3 mm3
same,% Inhibition,[4]; vs control,50.0%
"CCCC[C@H](NC(=O)[C@@H](NC(=O)[C@H](CC(=O)O)NC(=O)[C@H](CCC(N)=O)NC(=O)[C@H](CC(C)C)NC(=O)[C@H](CC(C)C)NC(=O)[C@H](CCCCN)NC(=O)[C@H](CCCNC(=N)N)NC(=O)[C@H](C)NC(=O)[C@H](CO)NC(=O)[C@H](CC(C)C)NC(=O)[C@H](CCC(N)=O)NC(=O)[C@H](CC)NC(=O)[C@H](CC(C)C)NC(=O)[C@@H](NC(=O)[C@H](CCCCN)NC(=O)[C@H](CCCNC(=N)N)NC(=O)[C@H](Cc1ccc(OC)cc1)NC(=O)[C@H](CCCCNC(=N)N)NC(=O)[C@H](CC(N)=O)NC(=O)[C@@H](NC(=O)[C@H](Cc1ccc(Cl)cc1)NC(=O)[C@@H](NC(=O)[C@H](C)NC(=O)[C@H](CC(=O)O)NC(=O)[C@@H](CCCNC(=N)N)NC(=O)[C@H](Cc1ccc(O)cc1)NC(=O)CCCCCCCCCCCNC(=O)Cc1c(F)c(F)c(F)c(F)c1F)[C@@H](C)CC)[C@@H](C)O)C(C)C)[C@@H](C)CC)C(=O)N[C@H](CCCNC(=N)N)C(=O)N[C@@H](CCCCNC(=N)N)C(=O)NCCCCCCCCCCCC(N)=O [AVR-333, 5FPhAC-Ada-Tyr-DArg-Asp-Ala-Ile-Cpa-Thr-Asn-Har-Tyr(Me)-Arg-Lys-Val-Leu-Abu-Gln-Leu-Ser-Ala-Arg-Lys-Leu-Leu-Gln-Asp-Ile-Nle-DArg-Har-Ada-NH2] ({Phenylacetyl(2,3,4,5,6-F5)-12Ado}-Y[dR]DAI[Phe(4-Cl)]TN[hArg]Y(Me)RKVL[Abu]QLSARKLLQDI[Nle][dR][hArg][12Ado]-NH2)",IC50,[1],0.3 nM
"CCCC[C@H](NC(=O)[C@@H](NC(=O)[C@H](CC(=O)O)NC(=O)[C@H](CCC(N)=O)NC(=O)[C@H](CC(C)C)NC(=O)[C@H](CC(C)C)NC(=O)[C@H](CCCN)NC(=O)[C@H](Cc1c[nH]cn1)NC(=O)[C@H](C)NC(=O)[C@H](CO)NC(=O)[C@H](CC(C)C)NC(=O)[C@H](CCC(N)=O)NC(=O)[C@H](CC)NC(=O)[C@H](CC(C)C)NC(=O)[C@@H](NC(=O)[C@H](CCCN)NC(=O)[C@H](Cc1c[nH]cn1)NC(=O)[C@H](Cc1ccc(OC)cc1)NC(=O)[C@H](CCCCNC(=N)N)NC(=O)[C@H](C)NC(=O)[C@@H](NC(=O)[C@H](Cc1c(F)c(F)c(F)c(F)c1F)NC(=O)[C@@H](NC(=O)[C@H](C)NC(=O)[C@H](CC(=O)O)NC(=O)[C@@H](CCCNC(=N)N)NC(=O)[C@H](Cc1ccc(O)cc1)NC(=O)CCCCCCCCCCCNC(=O)Cc1c(F)c(F)c(F)c(F)c1F)[C@@H](C)CC)[C@@H](C)O)C(C)C)[C@@H](C)CC)C(=O)N[C@H](CCCNC(=N)N)C(=O)N[C@@H](CCCCNC(=N)N)C(=O)NCCCCCCCCCCCC(N)=O [AVR-553, 5FPhAC-Ada-Tyr-DArg-Asp-Ala-Ile-5FPhe-Thr-Ala-Har-Tyr(Me)-His-Orn-Val-Leu-Abu-Gln-Leu-Ser-Ala-His-Orn-Leu-Leu-Gln-Asp-Ile-Nle-DArg-Har-Ada-NH2] ({Phenylacetyl(2,3,4,5,6-F5)-12Ado}-Y[dR]DAI[Phe(F5)]TA[hArg]Y(Me)H[Orn]VL[Abu]QLSAH[Orn]LLQDI[Nle][dR][hArg][12Ado]-NH2)",binding affinity to membrane receptors of human pituitary cells (in words),[1],higher binding affinity in comparison to MIA-602; also recorded: highest binding affinities
same,IC50,[1],0.15 nM
